PubChem BioAssay (NCI)
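Dose response: 5 concentrations. Exposure: 48 h. Format: 96-well plates. Endpoint: linear interpolation; highest concentration if not reached. At the TGI there is no net growth.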

Key:
Assay in all cases: NCI tumour cell line growth inhibition, 48 h
786-0 renal = tested on: 786-0 renal
A498 renal = tested on: A498 renal
A549 NSCLC = tested on: A549 NSCLC
ACHN renal = tested on: ACHN renal
CAKI-1 renal = tested on: CAKI-1 renal
CCRF-CEM leukemia = tested on: CCRF-CEM leukemia
COLO 205 colon = tested on: COLO 205 colon
DLD-1 colon = tested on: DLD-1 colon
DMS 114 small cell lung = tested on: DMS 114 small cell lung
DMS 273 small cell lung = tested on: DMS 273 small cell lung
EKVX NSCLC = tested on: EKVX NSCLC
HCC-2998 colon = tested on: HCC-2998 colon
HCT-116 colon = tested on: HCT-116 colon
HCT-15 colon = tested on: HCT-15 colon
HL-60(TB) leukemia = tested on: HL-60(TB) leukemia
HOP-18 NSCLC = tested on: HOP-18 NSCLC
HOP-62 NSCLC = tested on: HOP-62 NSCLC
HT29 colon = tested on: HT29 colon
IGROV1 ovarian = tested on: IGROV1 ovarian
K-562 leukemia = tested on: K-562 leukemia
KM12 colon = tested on: KM12 colon
KM20L2 colon = tested on: KM20L2 colon
LOX IMVI melanoma = tested on: LOX IMVI melanoma
LXFL 529 NSCLC = tested on: LXFL 529 NSCLC
M14 melanoma = tested on: M14 melanoma
M19-MEL melanoma = tested on: M19-MEL melanoma
MALME-3M melanoma = tested on: MALME-3M melanoma
MOLT-4 leukemia = tested on: MOLT-4 leukemia
NCI-H226 lung = tested on: NCI-H226 lung
NCI-H23 lung = tested on: NCI-H23 lung
NCI-H460 lung = tested on: NCI-H460 lung
NCI-H522 lung = tested on: NCI-H522 lung
OVCAR-3 ovarian = tested on: OVCAR-3 ovarian
OVCAR-4 ovarian = tested on: OVCAR-4 ovarian
OVCAR-5 ovarian = tested on: OVCAR-5 ovarian
OVCAR-8 ovarian = tested on: OVCAR-8 ovarian
RPMI-8226 leukemia = tested on: RPMI-8226 leukemia
RXF 393 renal = tested on: RXF 393 renal
RXF-631 renal = tested on: RXF-631 renal
SF-268 CNS = tested on: SF-268 CNS
SF-295 CNS = tested on: SF-295 CNS
SF-539 CNS = tested on: SF-539 CNS
SK-MEL-2 melanoma = tested on: SK-MEL-2 melanoma
SK-MEL-28 melanoma = tested on: SK-MEL-28 melanoma
SK-MEL-5 melanoma = tested on: SK-MEL-5 melanoma
SK-OV-3 ovarian = tested on: SK-OV-3 ovarian
SN12C renal = tested on: SN12C renal
SNB-19 CNS = tested on: SNB-19 CNS
SNB-75 CNS = tested on: SNB-75 CNS
SNB-78 CNS = tested on: SNB-78 CNS
SR leukemia = tested on: SR leukemia
SW-620 colon = tested on: SW-620 colon
TK-10 renal = tested on: TK-10 renal
U251 CNS = tested on: U251 CNS
UACC-257 melanoma = tested on: UACC-257 melanoma
UACC-62 melanoma = tested on: UACC-62 melanoma
UO-31 renal = tested on: UO-31 renal
XF 498 CNS = tested on: XF 498 CNS
HOP-92 NSCLC = tested on: HOP-92 NSCLC
MCF7 breast = tested on: MCF7 breast
NCI/ADR-RES ovarian = tested on: NCI/ADR-RES ovarian
P388 leukemia = tested on: P388 leukemia
P388/ADR leukemia = tested on: P388/ADR leukemia

For `O=S1c2ccccc2N=C(c2cccc3ccccc23)CC1c1cccc2ccccc12` (stereo not drawn), the TGI (786-0 renal) was 76.6 µM, the TGI (A498 renal) was 39.2 µM and the TGI (A549 NSCLC) was 36.7 µM. The TGI (ACHN renal) was 56.4 µM, the TGI (CAKI-1 renal) was 71.2 µM and the TGI (CCRF-CEM leukemia) was 49.1 µM. The TGI (COLO 205 colon) was 37.6 µM, the TGI (DLD-1 colon) was 62.8 µM and the TGI (DMS 114 small cell lung) was 34.8 µM. The TGI (DMS 273 small cell lung) was greater than 100 µM, the TGI (EKVX NSCLC) was 84.1 µM and the TGI (HCC-2998 colon) was 31.8 µM. It also gave a TGI (HCT-116 colon) of 39.3 µM, a TGI (HCT-15 colon) of 32 µM and a TGI (HL-60(TB) leukemia) of 30.5 µM. It also gave a TGI (HOP-18 NSCLC) of 25.2 µM, a TGI (HOP-62 NSCLC) greater than 100 µM and a TGI (HT29 colon) of 49.5 µM. For the same molecule, the TGI (IGROV1 ovarian) was 34 µM, the TGI (K-562 leukemia) was 60.5 µM and the TGI (KM12 colon) was 32 µM. It also gave a TGI (KM20L2 colon) greater than 100 µM, a TGI (LOX IMVI melanoma) of 27.9 µM and a TGI (LXFL 529 NSCLC) of 33.6 µM. The TGI (M14 melanoma) was 28.1 µM, the TGI (M19-MEL melanoma) was 4.33 µM and the TGI (MALME-3M melanoma) was 37.4 µM. The TGI (MOLT-4 leukemia) was 55.3 µM, the TGI (NCI-H226 lung) was 42.2 µM and the TGI (NCI-H23 lung) was 39.1 µM. The TGI (NCI-H460 lung) was 40.6 µM, the TGI (NCI-H522 lung) was 30 µM and the TGI (OVCAR-3 ovarian) was 40.5 µM. For the same molecule, the TGI (OVCAR-4 ovarian) was 27.8 µM, the TGI (OVCAR-5 ovarian) was 58.3 µM and the TGI (OVCAR-8 ovarian) was 46.3 µM. It also gave a TGI (RPMI-8226 leukemia) of 50.9 µM, a TGI (RXF 393 renal) of 38.7 µM and a TGI (RXF-631 renal) greater than 100 µM. For the same molecule, the TGI (SF-268 CNS) was 57.5 µM, the TGI (SF-295 CNS) was 71.2 µM and the TGI (SF-539 CNS) was 40.6 µM. It also gave a TGI (SK-MEL-2 melanoma) of 40.9 µM, a TGI (SK-MEL-28 melanoma) of 20.6 µM and a TGI (SK-MEL-5 melanoma) of 19.9 µM. The TGI (SK-OV-3 ovarian) was greater than 100 µM, the TGI (SN12C renal) was 30.5 µM and the TGI (SNB-19 CNS) was 66.7 µM. It also gave a TGI (SNB-75 CNS) of 49.1 µM, a TGI (SNB-78 CNS) greater than 100 µM and a TGI (SR leukemia) of 49.2 µM. The TGI (SW-620 colon) was 37.5 µM, the TGI (TK-10 renal) was 89.3 µM and the TGI (U251 CNS) was 37.7 µM. It also gave a TGI (UACC-257 melanoma) of 31.2 µM, a TGI (UACC-62 melanoma) of 26.4 µM and a TGI (UO-31 renal) of 67.8 µM. It also gave a TGI (XF 498 CNS) of 37.5 µM.
With `CCCCCCCCCCC(=O)CC(=O)c1c(O)cccc1O` the TGI (786-0 renal) was greater than 100 µM, the TGI (A498 renal) was greater than 100 µM and the TGI (A549 NSCLC) was greater than 100 µM. For the same molecule, the TGI (ACHN renal) was 91.3 µM, the TGI (CAKI-1 renal) was greater than 100 µM and the TGI (COLO 205 colon) was greater than 100 µM. It also gave a TGI (DLD-1 colon) greater than 100 µM, a TGI (DMS 114 small cell lung) of 72 µM and a TGI (DMS 273 small cell lung) of 58.2 µM. The TGI (EKVX NSCLC) was greater than 100 µM, the TGI (HCC-2998 colon) was greater than 100 µM and the TGI (HCT-116 colon) was 41.8 µM. It also gave a TGI (HCT-15 colon) greater than 100 µM, a TGI (HL-60(TB) leukemia) of 37.3 µM and a TGI (HOP-18 NSCLC) of 98.7 µM. For the same molecule, the TGI (HOP-62 NSCLC) was 72.9 µM, the TGI (HOP-92 NSCLC) was 82 µM and the TGI (HT29 colon) was greater than 100 µM. For the same molecule, the TGI (IGROV1 ovarian) was greater than 100 µM, the TGI (K-562 leukemia) was 81.3 µM and the TGI (KM12 colon) was greater than 100 µM. The TGI (KM20L2 colon) was greater than 100 µM, the TGI (LOX IMVI melanoma) was 37 µM and the TGI (LXFL 529 NSCLC) was greater than 100 µM. The TGI (M14 melanoma) was greater than 100 µM, the TGI (M19-MEL melanoma) was 67.1 µM and the TGI (MALME-3M melanoma) was greater than 100 µM. For the same molecule, the TGI (MOLT-4 leukemia) was 59 µM, the TGI (NCI-H226 lung) was 63.6 µM and the TGI (NCI-H23 lung) was 81.7 µM. For the same molecule, the TGI (NCI-H460 lung) was greater than 100 µM, the TGI (NCI-H522 lung) was 90.4 µM and the TGI (OVCAR-3 ovarian) was 63.7 µM. It also gave a TGI (OVCAR-4 ovarian) greater than 100 µM, a TGI (OVCAR-5 ovarian) of 49.1 µM and a TGI (OVCAR-8 ovarian) greater than 100 µM. For the same molecule, the TGI (RPMI-8226 leukemia) was 50.2 µM, the TGI (RXF 393 renal) was 72.5 µM and the TGI (RXF-631 renal) was greater than 100 µM. It also gave a TGI (SF-268 CNS) greater than 100 µM, a TGI (SF-295 CNS) greater than 100 µM and a TGI (SF-539 CNS) greater than 100 µM. For the same molecule, the TGI (SK-MEL-28 melanoma) was greater than 100 µM, the TGI (SK-MEL-5 melanoma) was 72.8 µM and the TGI (SK-OV-3 ovarian) was greater than 100 µM. For the same molecule, the TGI (SN12C renal) was greater than 100 µM, the TGI (SNB-19 CNS) was greater than 100 µM and the TGI (SNB-75 CNS) was greater than 100 µM. The TGI (SNB-78 CNS) was greater than 100 µM, the TGI (SR leukemia) was greater than 100 µM and the TGI (SW-620 colon) was greater than 100 µM. For the same molecule, the TGI (TK-10 renal) was greater than 100 µM, the TGI (U251 CNS) was 69.5 µM and the TGI (UACC-257 melanoma) was 96 µM. It also gave a TGI (UACC-62 melanoma) greater than 100 µM, a TGI (UO-31 renal) of 85.9 µM and a TGI (XF 498 CNS) of 46.2 µM.
For `COC1=C(C)C(=O)C2=C(C1=O)[C@@H]1[C@@H]3Cc4c(OC(=O)CO)c(C)c(OC)c(O)c4[C@H](CNC(=O)C(C)=O)N3[C@@H](C#N)[C@H](C2)N1C`, the TGI (A549 NSCLC) was 49 µM, the TGI (CAKI-1 renal) was 7.87 µM and the TGI (COLO 205 colon) was less than 0.0309 µM. It also gave a TGI (DMS 114 small cell lung) of less than 0.01 µM, a TGI (DMS 273 small cell lung) of 0.065 µM and a TGI (HCC-2998 colon) of 0.226 µM. For the same molecule, the TGI (HCT-116 colon) was 12.1 µM, the TGI (HL-60(TB) leukemia) was 2.75 µM and the TGI (HOP-18 NSCLC) was 0.0966 µM. The TGI (HOP-62 NSCLC) was 1.16 µM, the TGI (HOP-92 NSCLC) was less than 0.0258 µM and the TGI (HT29 colon) was 10.6 µM. It also gave a TGI (K-562 leukemia) of 7.77 µM, a TGI (KM12 colon) of 2.05 µM and a TGI (KM20L2 colon) of 0.686 µM. The TGI (LOX IMVI melanoma) was less than 0.01 µM, the TGI (M19-MEL melanoma) was 0.0463 µM and the TGI (MALME-3M melanoma) was 0.351 µM. The TGI (MCF7 breast) was 13.9 µM, the TGI (MOLT-4 leukemia) was 0.173 µM and the TGI (NCI-H226 lung) was 0.834 µM. The TGI (NCI-H23 lung) was less than 0.0176 µM, the TGI (NCI-H460 lung) was 1.83 µM and the TGI (NCI-H522 lung) was less than 0.0139 µM. It also gave a TGI (NCI/ADR-RES ovarian) of 17.1 µM, a TGI (OVCAR-3 ovarian) of 0.0366 µM and a TGI (OVCAR-4 ovarian) of 0.484 µM. It also gave a TGI (OVCAR-5 ovarian) of 0.447 µM, a TGI (OVCAR-8 ovarian) of 0.684 µM and a TGI (P388 leukemia) of 0.0205 µM. It also gave a TGI (P388/ADR leukemia) of 1.82 µM, a TGI (RPMI-8226 leukemia) of 0.389 µM and a TGI (RXF 393 renal) of 0.0392 µM. It also gave a TGI (SF-268 CNS) of 0.208 µM, a TGI (SF-295 CNS) of 2.28 µM and a TGI (SF-539 CNS) of 0.24 µM. For the same molecule, the TGI (SK-MEL-2 melanoma) was 0.0359 µM, the TGI (SK-MEL-28 melanoma) was 1.2 µM and the TGI (SK-MEL-5 melanoma) was 0.0393 µM. The TGI (SK-OV-3 ovarian) was 28.6 µM, the TGI (SN12C renal) was 10.8 µM and the TGI (SNB-78 CNS) was 0.998 µM. The TGI (SW-620 colon) was 3.24 µM, the TGI (U251 CNS) was 4.09 µM and the TGI (UACC-257 melanoma) was 0.0364 µM. It also gave a TGI (UACC-62 melanoma) of less than 0.0368 µM, a TGI (UO-31 renal) of 0.362 µM and a TGI (XF 498 CNS) of less than 0.01 µM.
